“Also recorded” adds a separate entry of the source. Like-named read-outs stand apart in the source and are kept apart here.
How the values were obtained:
Arabidopsis [1] = assay: Arabidopsis reversal (reversion) assay: growth with probe compound in the presence of antidote compounds; format: in vivo; settings: for Inhibition of AMP biosynthesis (conversion of IMP to AMP), in words: concluded from Arabidopsis antidote reversal; for Growth (in words): without antidote; for Effect of the antidote alone on growth of the plant (in words): control columns 1 through 3, no probe compound
Source text: Test conditions suitable for growth are those conditions wherein the control plant material used in the screen, described herein, will grow normally. These conditions are easily determined by one skilled in the art. Reversal conditions are those conditions in which inhibition which occurs at the lethal concentration of a probe compound is reversed as determined by exposure of the plant material to combinations of the probe compound and to one or more antidote compounds. […] An antidote compound is a compound that causes reversal of inhibition of a probe compound. As an example, with respect to inhibitors of ADSS, antidotes would include AMP, ADP, adenosine and adenine.
The solutions are filter sterilized prior to addition. FIG. 4 represents a typical set up in a reversion assay for discovering inhibitors of AMP biosynthesis.
The left side (columns 1-3) of the 24-well microtiter plate is designed for controls, and the right side (columns 4-6) are designated for one probe compound. […] Rows B, C and D are supplemented with three doses of an antidote for the control and probe compound. […] The three doses are 50, 100 and 150 μl respectively of the stock solutions.
Forty ml of Arabidopsis growth media as described in Example 1 is sterilized and allowed to cool to about 45° C. A probe compound (at 1.5×lethal concentration) is added to columns 4 through 6 (right half of the plate). Media is distributed at 1.0 ml per well to all wells. Sterile seeds are added to each well as described above. As in Example 1, the plate is incubated and growth is scored.

Arabidopsis [2] = assay: Arabidopsis bioassay, determination of the lethal concentration (LC 90) of the probe compound
IMP to GMP conversion = settings: known; cited from earlier work
[3] = antidote Adenosine + Guanosine 0.5-5.0 mM
[4] = antidote Cytidine + Uridine 0.5-5.0 mM
[5] = antidote Hypoxanthine 0.5-5.0 mM
[6] = read-out: lethal concentration (LC 90), Arabidopsis seeds, 28° C., 7 days, approximately, 90% or greater growth inhibition

Compound | Growth, % of Control (Arabidopsis [1]; antidote ADP 0.5-5.0 mM) | Growth, % of Control (Arabidopsis [1]; antidote AMP 0.5-5.0 mM) | Growth, % of Control (Arabidopsis [1]; antidote ATP 0.5-5.0 mM) | Growth, % of Control (Arabidopsis [1]; antidote Adenine 0.5-5.0 mM) | Growth, % of Control (Arabidopsis [1]; antidote Adenosine 0.5-5.0 mM) | Growth, % of Control (Arabidopsis [1]; [3]) | Growth, % of Control (Arabidopsis [1]; [4]) | Growth, % of Control (Arabidopsis [1]; antidote Guanine 0.5-5.0 mM) | Growth, % of Control (Arabidopsis [1]; antidote Guanosine 0.5-5.0 mM) | Growth, % of Control (Arabidopsis [1]; [5]) | Growth, % of Control (Arabidopsis [1]; antidote IMP 0.5-5.0 mM) | Inhibition of AMP biosynthesis (conversion of IMP to AMP), in words (Arabidopsis [1]) | Growth (in words) (Arabidopsis [1]) | further results
O=C1NC(=O)C2(N1)O[C@H](CO)[C@@H](O)[C@H]2O (single isomer, unassigned) [hydantocidin, reference compound] | 100 % of Control | 100 % of Control | 40 % of Control | 60 % of Control | 80-100 % of Control | 80 % of Control | 0 % of Control | 0 % of Control | 0 % of Control | 0 % of Control | 5 % of Control | blocking AMP biosynthesis; also recorded: inhibition of AMP biosynthesis | Growth is not observed | Growth / reversal of growth inhibition (in words) (Arabidopsis [1]; antidote IMP): did not reverse growth inhibition; Growth / reversal of growth inhibition (in words) (Arabidopsis [1]; antidotes adenosine and AMP, rows B and C, wells 4 through 6): Complete growth; IC90 (Arabidopsis [2]; [6]): ~2 µM
Nc1ncnc2c1ncn2[C@@H]1O[C@H](COP(=O)(O)O)[C@@H](O)[C@H]1O [AMP, adenosine monophosphate, reference compound] |  |  |  |  |  |  |  |  |  |  |  |  |  | Effect of the antidote alone on growth of the plant (in words) (Arabidopsis [1]): no effect on the growth of the plant
COc1c(C)c2c(c(O)c1C/C=C(\C)CCC(=O)O)C(=O)OC2 [MPA, Mycophenolic Acid] |  |  |  |  |  |  |  |  |  |  |  |  | Growth is not observed | Inhibition of IMP to GMP conversion, in words (IMP to GMP conversion): known inhibitor of IMP to GMP conversion; IC90 (Arabidopsis [2]; Arabidopsis thaliana, 168 h, read-out: lethal concentration): 12.5 µg/mL
CC(=O)N1C(=O)NC2(OC(COP(=O)(O)O)C(O)C2O)C1=O (stereo not shown) [N-acetylphosphohydantocidin, 5'-Phospho-N-acetyl-hydantocidin] | 100 % of Control | 100 % of Control | 40 % of Control | 65 % of Control | 80-100 % of Control | 80 % of Control | 0 % of Control | 0 % of Control | 0 % of Control | 0 % of Control | 5 % of Control |  | Growth is not observed | Growth, % of Control (Arabidopsis [1]; No antidote, 0 mM, probe compound at 1.5×lethal concentration): 0 % of Control; IC90 (Arabidopsis [2]; [6]): ~8 µM
NC(=O)c1ncn([C@@H]2O[C@H](CO)[C@@H](O)[C@H]2O)n1 [TCR, 1,2,4-triazole-3-carboxamide-1-ribose, reference compound] |  |  |  |  |  |  |  |  |  |  |  |  | Growth is not observed | 
Nc1ncnc2c1ncn2[C@@H]1O[C@H](CO)[C@@H](O)[C@H]1O [adenosine, reference compound] |  |  |  |  |  |  |  |  |  |  |  |  |  | Effect of the antidote alone on growth of the plant (in words) (Arabidopsis [1]): no effect on the growth of the plant
O=CN(O)CC(=O)O [hadacidin, reference compound] |  |  |  |  |  |  |  |  |  |  |  | blocking AMP biosynthesis | Growth is not observed | IC90 (Arabidopsis [2]; Arabidopsis thaliana, 168 h, read-out: lethal concentration (LC 90)): ~50 µM
N-acetyl hydantocidin | 100 % of Control | 100 % of Control | 40 % of Control | 60 % of Control | 80-100 % of Control | 80 % of Control | 0 % of Control | 0 % of Control | 0 % of Control | 0 % of Control | 5 % of Control | blocking AMP biosynthesis | Growth is not observed | 

Source: US5780253A, “Screening method for detection of herbicides” (Sandoz Ltd., priority 1996, dated 1998)
